Holding throughout (type): functional, organism-based
Common to all, as to conditions: Mus musculus

Experiment [1] deals with P388. As to the kind of experiment: Median survival time against P388 leukemia in CDF1 mice at a dose of 1.5 mg/kg administered intraperitoneally; […]. The arrangement: dose 1.5 mg/kg.
The test system of experiment [2] is P388. As to the kind of experiment: Median survival time against P388 leukemia in CDF1 mice at a dose of 6 mg/kg administered intraperitoneally; […]. Also noted: dose 6 mg/kg.
Experiment [3] concerns P388. The experiment in a line: Number of treated mice to that of control against P388 leukemia in CDF1 mice at a dose of 6 mg/kg administered intraperitoneally; active. The arrangement: dose 6 mg/kg.
Experiment [4] has as its system P388. The experiment in a line: Number of treated mice to that of control against P388 leukemia in CDF1 mice at a dose of 3 mg/kg administered intraperitoneally; active. Also noted: dose 3 mg/kg.
Experiment [5] has as its system P388. The experiment in a line: Number of treated mice to that of control against P388 leukemia in CDF1 mice at a dose of 1.5 mg/kg administered intraperitoneally; active. The arrangement: dose 1.5 mg/kg.
The test system of experiment [6] is P388. The experiment in a line: Median survival time against P388 leukemia in CDF1 mice at a dose of 3 mg/kg administered intraperitoneally; […]. Also noted: dose 3 mg/kg.

Regarding CISPLATIN, the results for the MST with P388 [1], with P388 [2] and in the experiment on P388 [6] were 15.5, 24.5 and 18.5, respectively. For the same sequence, the T/C turned out to be 249 in the experiment on P388 [3], 188 with P388 [4] and 158 in the experiment on P388 [5].

(Values after ChEMBL document CHEMBL1123798, “Stereocontrolled syntheses for the six diastereomeric 1,2-dihydroxy-4,5-diaminocyclohexanes: PtII complexes and P-388 antitumor properties” (J Med Chem, 1987).)
